Source: ChEMBL document CHEMBL1141678 (Eur J Med Chem, 2008)

Tests used:
Cytochrome P450 3A4 [1] = biological target: T1, Cytochrome P450 3A4 (Homo sapiens, UniProt P08684); assay: Inhibition of human recombinant CYP3A4; format: ADME
Cytochrome P450 2B6 [2] = biological target: T2, Cytochrome P450 2B6 (Homo sapiens, UniProt P20813); assay: Inhibition of human recombinant CYP2B6; format: ADME
T2 sequence (P20813 whole entry): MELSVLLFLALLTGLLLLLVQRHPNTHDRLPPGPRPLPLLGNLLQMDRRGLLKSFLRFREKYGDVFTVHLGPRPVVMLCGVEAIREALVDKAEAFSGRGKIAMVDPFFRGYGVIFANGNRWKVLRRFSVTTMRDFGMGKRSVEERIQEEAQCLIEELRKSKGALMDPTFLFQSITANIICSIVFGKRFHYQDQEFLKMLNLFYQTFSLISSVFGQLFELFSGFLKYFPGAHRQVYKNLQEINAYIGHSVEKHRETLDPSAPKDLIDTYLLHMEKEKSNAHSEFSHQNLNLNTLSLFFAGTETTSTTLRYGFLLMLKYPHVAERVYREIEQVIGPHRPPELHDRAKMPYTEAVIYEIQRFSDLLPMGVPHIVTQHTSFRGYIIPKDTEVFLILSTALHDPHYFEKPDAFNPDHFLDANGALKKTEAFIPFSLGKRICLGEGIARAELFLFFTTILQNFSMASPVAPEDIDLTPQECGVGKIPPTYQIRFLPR

Cytochrome P450 2D6 [3] = biological target: T3, Cytochrome P450 2D6 (Homo sapiens, UniProt P10635); assay: Inhibition of human recombinant CYP2D6 in presence of reduced glutathione; format: ADME; conditions: recombinant enzyme
Cytochrome P450 2B6 [4] = biological target: T2, Cytochrome P450 2B6; assay: Inhibition of human recombinant CYP2B6 in presence of reduced glutathione; format: ADME; conditions: recombinant enzyme
CYP2B6 = biological target: T4, CYP2B6 (Homo sapiens, UniProt P20813); assay: Inhibition of human recombinant CYP2B6 at 100 uM; format: ADME
T4 sequence (P20813 whole entry): T2 sequence (P20813 whole entry)

Cytochrome P450 2C9 [5] = biological target: T5, Cytochrome P450 2C9 (Homo sapiens, UniProt P11712); assay: Inhibition of human recombinant CYP2C9 in presence of reduced glutathione; format: ADME; conditions: recombinant enzyme
Cytochrome P450 3A4 [6] = biological target: T1, Cytochrome P450 3A4; assay: Inhibition of human recombinant CYP3A4 in presence of reduced glutathione; format: ADME; conditions: recombinant enzyme
Cytochrome P450 1A2 = biological target: T6, Cytochrome P450 1A2 (Homo sapiens, UniProt P05177); assay: Inhibition of human recombinant CYP1A2; conditions: for log(1/IC50): human
T6 sequence (P05177 whole entry): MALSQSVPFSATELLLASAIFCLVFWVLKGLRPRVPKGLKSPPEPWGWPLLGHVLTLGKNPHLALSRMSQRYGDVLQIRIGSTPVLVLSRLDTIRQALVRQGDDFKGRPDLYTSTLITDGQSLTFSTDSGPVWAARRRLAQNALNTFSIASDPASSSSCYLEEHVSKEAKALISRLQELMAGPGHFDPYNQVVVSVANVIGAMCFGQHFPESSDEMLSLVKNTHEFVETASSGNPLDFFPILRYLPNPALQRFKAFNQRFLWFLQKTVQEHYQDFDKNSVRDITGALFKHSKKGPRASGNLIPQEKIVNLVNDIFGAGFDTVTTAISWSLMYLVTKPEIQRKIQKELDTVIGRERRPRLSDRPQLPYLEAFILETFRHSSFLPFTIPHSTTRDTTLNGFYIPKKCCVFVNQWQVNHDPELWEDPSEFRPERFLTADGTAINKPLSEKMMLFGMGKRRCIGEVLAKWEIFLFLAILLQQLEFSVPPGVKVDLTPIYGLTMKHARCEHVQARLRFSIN

Cytochrome P450 2C9 [7] = biological target: T5, Cytochrome P450 2C9; assay: Inhibition of human recombinant CYP2C9; format: ADME
Cytochrome P450 2D6 [8] = biological target: T3, Cytochrome P450 2D6; assay: Inhibition of human recombinant CYP2D6; format: ADME

T5 sequence (P11712 whole entry): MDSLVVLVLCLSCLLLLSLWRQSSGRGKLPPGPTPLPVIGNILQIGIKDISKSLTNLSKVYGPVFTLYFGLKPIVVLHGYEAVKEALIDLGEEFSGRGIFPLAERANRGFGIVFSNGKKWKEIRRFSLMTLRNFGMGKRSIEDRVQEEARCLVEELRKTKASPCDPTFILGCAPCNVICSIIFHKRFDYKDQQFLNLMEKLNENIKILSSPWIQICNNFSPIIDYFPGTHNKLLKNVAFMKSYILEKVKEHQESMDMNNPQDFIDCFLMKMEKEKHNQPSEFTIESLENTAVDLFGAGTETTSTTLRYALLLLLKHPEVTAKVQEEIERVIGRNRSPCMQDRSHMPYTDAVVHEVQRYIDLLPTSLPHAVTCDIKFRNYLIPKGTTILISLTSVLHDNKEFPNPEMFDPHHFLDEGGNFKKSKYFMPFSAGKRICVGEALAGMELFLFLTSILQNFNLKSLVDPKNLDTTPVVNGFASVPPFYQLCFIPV
T3 sequence (P10635 whole entry): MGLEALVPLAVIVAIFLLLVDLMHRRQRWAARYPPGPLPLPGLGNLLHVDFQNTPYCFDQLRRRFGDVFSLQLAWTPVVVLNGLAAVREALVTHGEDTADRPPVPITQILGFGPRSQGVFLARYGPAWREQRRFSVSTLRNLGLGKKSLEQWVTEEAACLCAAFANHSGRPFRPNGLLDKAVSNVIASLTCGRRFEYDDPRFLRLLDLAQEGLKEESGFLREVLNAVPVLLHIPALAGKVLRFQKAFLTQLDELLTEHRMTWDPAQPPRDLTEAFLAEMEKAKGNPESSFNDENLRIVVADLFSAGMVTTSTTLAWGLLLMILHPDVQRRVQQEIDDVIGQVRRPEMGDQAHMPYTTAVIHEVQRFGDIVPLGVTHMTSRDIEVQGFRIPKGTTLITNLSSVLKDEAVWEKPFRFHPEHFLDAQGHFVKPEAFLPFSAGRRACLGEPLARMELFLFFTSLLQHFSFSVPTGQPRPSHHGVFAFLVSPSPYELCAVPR
T1 sequence (P08684 whole entry): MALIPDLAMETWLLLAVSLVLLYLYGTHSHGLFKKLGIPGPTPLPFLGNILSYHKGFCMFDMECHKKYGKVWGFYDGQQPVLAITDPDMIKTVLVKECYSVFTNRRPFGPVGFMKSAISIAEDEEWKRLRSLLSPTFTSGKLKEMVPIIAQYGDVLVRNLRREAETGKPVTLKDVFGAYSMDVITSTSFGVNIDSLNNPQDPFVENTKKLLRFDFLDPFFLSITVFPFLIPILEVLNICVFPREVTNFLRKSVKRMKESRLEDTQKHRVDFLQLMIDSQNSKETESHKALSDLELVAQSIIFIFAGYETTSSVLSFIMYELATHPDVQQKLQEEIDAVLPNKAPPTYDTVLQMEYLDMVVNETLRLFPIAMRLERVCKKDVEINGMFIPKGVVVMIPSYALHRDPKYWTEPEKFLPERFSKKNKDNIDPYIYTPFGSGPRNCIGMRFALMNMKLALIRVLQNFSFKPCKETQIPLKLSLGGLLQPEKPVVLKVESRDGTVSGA

SMILES	IC50 (Cytochrome P450 3A4 [1]) [µM]	IC50 (Cytochrome P450 2B6 [2]) [µM]	Activity (Cytochrome P450 2D6 [3])	Activity (Cytochrome P450 2B6 [4])	inhibition at 100 µM (CYP2B6) [%]	Activity (Cytochrome P450 2C9 [5])	Activity (Cytochrome P450 3A4 [6])	IC50 (Cytochrome P450 1A2) [µM]	log(1/IC50) (Cytochrome P450 1A2; recombinant CYP1A2)	IC50 (Cytochrome P450 2C9 [7]) [µM]	IC50 (Cytochrome P450 2D6 [8]) [µM]	log(1/IC50) (Cytochrome P450 1A2; recombinant enzyme) [mM]
COc1cc(/C=C2\CC/C(=C\c3cc(OC)c(O)c(OC)c3)C2=O)cc(OC)c1O	38.3	70	Not Active	Not Active	> 20	Not Active	Not Active					
COc1cc(/C=C/C(=O)CC(=O)/C=C/c2ccc(O)c(OC)c2)ccc1O [CURCUMIN]	16.3	24.5						40			50.3	
COc1cc(/C=C/C(=O)/C=C/c2cc(OC)c(O)c(OC)c2)cc(OC)c1O	13.2	24.8	Not Active	Not Active	> 20	Not Active	Not Active	75.2		59	82.7	1.124

The remaining lines, values ahead:

IC50 (Cytochrome P450 3A4 [1]) [µM]	IC50 (Cytochrome P450 2B6 [2]) [µM]	Activity (Cytochrome P450 2D6 [3])	Activity (Cytochrome P450 2B6 [4])	inhibition at 100 µM (CYP2B6) [%]	Activity (Cytochrome P450 2C9 [5])	Activity (Cytochrome P450 3A4 [6])	IC50 (Cytochrome P450 1A2) [µM]	log(1/IC50) (Cytochrome P450 1A2; recombinant CYP1A2)	IC50 (Cytochrome P450 2C9 [7]) [µM]	IC50 (Cytochrome P450 2D6 [8]) [µM]	log(1/IC50) (Cytochrome P450 1A2; recombinant enzyme) [mM]	SMILES
40.3	44.8	Not Active	Not Active	> 20	Not Active	Not Active	30.4	1.517	62.8	13.2		Cc1cc(/C=C/C(=O)/C=C/c2cc(C)c(O)c(C)c2)cc(C)c1O
		Not Active	Not Active		Not Active	Not Active	42.8	1.369	55	119		CC(C)(C)c1cc(/C=C2\CC/C(=C\c3cc(C(C)(C)C)c(O)c(C(C)(C)C)c3)C2=O)cc(C(C)(C)C)c1O
